Assay results taken from paper PMC10257182, “Discovery of senolytics using machine learning” (Nature Communications, 2023).
Like-named read-outs stand apart in the source and are kept apart here.

Key:
Assay type in all cases: cell-based, human
[1] = test system: non-senescent control A549 cells; assay: Nuclei count senolytic assay, TIS model, non-senescent control cells; conditions: Homo sapiens, A549, Control cells, mean, read-out: Mean % Cell Survival
Outline: (§1)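 Etoposide 100 μM, 48 h, + 3 d standard media → senescent A549; untreated A549 = controls. 24 h post-seeding, cpds 10 nM–10 μM final, 10-pt […], 72 h, n=3. Fix formaldehyde, permeabilise Triton-X100, Hoechst 2 μg/ml, image, count nuclei.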

[2] = test system: senescent A549 cells (etoposide-induced); assay: Nuclei count senolytic assay, therapy-induced senescence (TIS) model, senescent cells; conditions: Homo sapiens, A549, Senescent cells, mean, read-out: Mean % Cell Survival
Outline: as §1

[3] = test system: senescent IMR90 ER:RAS cells (4-OHT-induced); assay: Nuclei count (Hoechst, high content imaging) senolytic assay, oncogene-induced senescence (OIS) model, senescent cells
Outline: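 IMR90 ER:RAS (p14), ±4-OHT 100 nM; cpd 10 nM–10 μM, 10-pt […], 72 h, n=3. Fix formaldehyde, Triton X-100, Hoechst 2 μg/ml final. Readout: imaged nuclei count vs untreated; ouabain positive control.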

Compound: O=c1c(O)c(-c2ccc(O)cc2)oc2c(O)c(O)cc(O)c12 [Herbacetin, herbacetin]
- viability at 10 µM ([1]; log (dose) [M] -5): 95.4%
- viability at 4.68 µM ([1]; log (dose) [M] -5.33): 61.9%
- viability at 2.19 µM ([1]; log (dose) [M] -5.66): 89.3%
- viability at 1 µM ([1]; log (dose) [M] -6): 98.7%
- viability at 0.468 µM ([1]; log (dose) [M] -6.33): 110%
- viability at 0.219 µM ([1]; log (dose) [M] -6.66): 94.4%
- viability at 0.1 µM ([1]; log (dose) [M] -7): 93.1%
- viability at 0.0468 µM ([1]; log (dose) [M] -7.33): 91.6%
- viability at 0.0219 µM ([1]; log (dose) [M] -7.66): 96.1%
- viability at 0.01 µM ([1]; log (dose) [M] -8): 96.9%
- viability at 10 µM ([2]; log (dose) [M] -5): 112%
- viability at 4.68 µM ([2]; log (dose) [M] -5.33): 122%
- viability at 2.19 µM ([2]; log (dose) [M] -5.66): 121%
- viability at 1 µM ([2]; log (dose) [M] -6): 87.3%
- viability at 0.468 µM ([2]; log (dose) [M] -6.33): 80.2%
- viability at 0.219 µM ([2]; log (dose) [M] -6.66): 102%
- viability at 0.1 µM ([2]; log (dose) [M] -7): 114%
- viability at 0.0468 µM ([2]; log (dose) [M] -7.33): 106%
- viability at 0.0219 µM ([2]; log (dose) [M] -7.66): 98.6%
- viability at 0.01 µM ([2]; log (dose) [M] -8): 91.8%
- viability at 10 µM ([3]; Homo sapiens, IMR-90, 72 h, Senescent, log (dose) [M] -5, 72 h, mean n=3 (Fig 3C), read-out: Mean % Cell Survival): 103%
- viability at 4.677 µM ([3]; Homo sapiens, IMR-90, 72 h, Senescent, log (dose) [M] -5.33, 72 h, mean n=3 (Fig 3C), read-out: Mean % Cell Survival): 98.4%
- viability at 2.188 µM ([3]; Homo sapiens, IMR-90, 72 h, Senescent, log (dose) [M] -5.66, 72 h, mean n=3 (Fig 3C), read-out: Mean % Cell Survival): 76.1%
- viability at 1 µM ([3]; Homo sapiens, IMR-90, 72 h, Senescent, log (dose) [M] -6, 72 h, mean n=3 (Fig 3C), read-out: Mean % Cell Survival): 71.6%
- viability at 0.4677 µM ([3]; Homo sapiens, IMR-90, 72 h, Senescent, log (dose) [M] -6.33, 72 h, mean n=3 (Fig 3C), read-out: Mean % Cell Survival): 91.9%
- viability at 0.2188 µM ([3]; Homo sapiens, IMR-90, 72 h, Senescent, log (dose) [M] -6.66, 72 h, mean n=3 (Fig 3C), read-out: Mean % Cell Survival): 84.1%
- viability at 0.1 µM ([3]; Homo sapiens, IMR-90, 72 h, Senescent, log (dose) [M] -7, 72 h, mean n=3 (Fig 3C), read-out: Mean % Cell Survival): 95.7%
- viability at 0.04677 µM ([3]; Homo sapiens, IMR-90, 72 h, Senescent, log (dose) [M] -7.33, 72 h, mean n=3 (Fig 3C), read-out: Mean % Cell Survival): 90.5%
- viability at 0.02188 µM ([3]; Homo sapiens, IMR-90, 72 h, Senescent, log (dose) [M] -7.66, 72 h, mean n=3 (Fig 3C), read-out: Mean % Cell Survival): 97.8%
- viability at 0.01 µM ([3]; Homo sapiens, IMR-90, 72 h, Senescent, log (dose) [M] -8, 72 h, mean n=3 (Fig 3C), read-out: Mean % Cell Survival): 97.5%
- viability at 0.4677 µM ([3]; Homo sapiens, IMR-90, Senescent cells, log (dose) [M] -6.33, individual replicates, SUP FIG 4C, read-out: % Cell Survival): 94.7%
- viability at 0.04677 µM ([3]; Homo sapiens, IMR-90, Senescent cells, log (dose) [M] -7.33, individual replicates, SUP FIG 4C, read-out: % Cell Survival): 85.5%
- viability at 0.02188 µM ([3]; Homo sapiens, IMR-90, Senescent cells, log (dose) [M] -7.66, individual replicates, SUP FIG 4C, read-out: % Cell Survival): 100%
- viability at 0.01 µM ([3]; Homo sapiens, IMR-90, Senescent cells, log (dose) [M] -8, individual replicates, SUP FIG 4C, read-out: % Cell Survival): 91.5%
- viability at 0.02188 µM ([3]; Homo sapiens, IMR-90, Senescent, log (dose) [M] -7.66, read-out: % Cell Survival): 104%
- senolytic activity (in words) ([3]; experimental screen, OIS IMR90 ER:RAS): inactive
